How the values were obtained:
Format in all cases: in vivo
Settings in all cases: after 13 d
[1] = test system: ivy-leaved morning glory (Ipomoea hederacea, IPOHE); assay: Test A post-emergence, ivy-leaved morning glory
Method: (§1) Seeds of corn (Zea mays, ZEAMX), giant foxtail (Setaria faberi, SETFA), barnyardgrass (Echinochloa crus-galli, ECHCG), ivy-leaved morning glory (Ipomoea hederacea, IPOHE)), redroot pigweed (Amaranthus retroflexus, AMARE) and velvetleaf (Abutilon theophrasti, ABUTH) were sown in standard soil in pots. After cultivation for 8 d under controlled conditions in a glasshouse (at 24/16° C., day/night; 14 h light; 65% humidity), the plants were sprayed with an aqueous spray solution derived from the formulation of the technical active ingredient in acetone/water (50:50) solution containing 0.5% Tween 20 (polyoxyethylene sorbitan monolaurate, CAS RN 9005-64-5) to give a final dose of 15.625, 62.5 or 250 g/ha of test compound.
(§2) The test plants were then grown on under controlled conditions in a glasshouse (at 24/16° C., day/night; 14 h light; 65% humidity) and watered twice daily. After 13 d the test was evaluated (100=total damage to plant; 0=no damage to plant).

[2] = test system: barnyardgrass (Echinochloa crus-galli, ECHCG); assay: Test A pre-emergence, barnyardgrass
Method: as §1, with “IPOHE),” for “IPOHE)),”, “one day” for “8 d”
(§3) The test plants were then grown under controlled conditions in a glasshouse (at 24/16° C., day/night; 14 h light; 65% humidity) and watered twice daily. After 13 d the test was evaluated (100=total damage to plant; 0=no damage to plant).

corn (Zea mays, ZEAMX) [3] = assay: Test A pre-emergence, corn
Method: as §1, with “IPOHE),” for “IPOHE)),”, “one day” for “8 d”
as §3

[4] = test system: giant foxtail (Setaria faberi, SETFA); assay: Test A post-emergence, giant foxtail
Method: as §1, §2

[5] = test system: redroot pigweed (Amaranthus retroflexus, AMARE); assay: Test A post-emergence, redroot pigweed
Method: as §1, §2

[6] = test system: velvetleaf (Abutilon theophrasti, ABUTH); assay: Test A pre-emergence, velvetleaf
Method: as §1, with “IPOHE),” for “IPOHE)),”, “one day” for “8 d”
as §3

[7] = test system: giant foxtail (Setaria faberi, SETFA); assay: Test A pre-emergence, giant foxtail
Method: as §1, with “IPOHE),” for “IPOHE)),”, “one day” for “8 d”
as §3

corn (Zea mays, ZEAMX) [8] = assay: Test A post-emergence, corn
Method: as §1, §2

[9] = test system: ivy-leaved morning glory (Ipomoea hederacea, IPOHE); assay: Test A pre-emergence, ivy-leaved morning glory
Method: as §1, with “IPOHE),” for “IPOHE)),”, “one day” for “8 d”
as §3

[10] = test system: redroot pigweed (Amaranthus retroflexus, AMARE); assay: Test A pre-emergence, redroot pigweed
Method: as §1, with “IPOHE),” for “IPOHE)),”, “one day” for “8 d”
as §3

[11] = test system: barnyardgrass (Echinochloa crus-galli, ECHCG); assay: Test A post-emergence, barnyardgrass
Method: as §1, §2

[12] = test system: velvetleaf (Abutilon theophrasti, ABUTH); assay: Test A post-emergence, velvetleaf
Method: as §1, §2

Compound | damage to plant (100=total damage; 0=no damage) IPOHE ([1]; Post-Emergence at 15.625 g/ha) | damage to plant (100=total damage; 0=no damage) IPOHE ([1]; Post-Emergence at 62.5 g/ha) | damage to plant (100=total damage; 0=no damage) IPOHE ([1]; Post-Emergence at 250 g/ha) | damage to plant (100=total damage; 0=no damage) ECHCG ([2]; Pre-Emergence at 15.625 g/ha) | damage to plant (100=total damage; 0=no damage) ECHCG ([2]; Pre-Emergence at 62.5 g/ha) | damage to plant (100=total damage; 0=no damage) ECHCG ([2]; Pre-Emergence at 250 g/ha) | damage to plant (100=total damage; 0=no damage) ZEAMX (corn (Zea mays, ZEAMX) [3]; Pre-Emergence at 15.625 g/ha) | damage to plant (100=total damage; 0=no damage) ZEAMX (corn (Zea mays, ZEAMX) [3]; Pre-Emergence at 62.5 g/ha) | damage to plant (100=total damage; 0=no damage) ZEAMX (corn (Zea mays, ZEAMX) [3]; Pre-Emergence at 250 g/ha) | damage to plant (100=total damage; 0=no damage) SETFA ([4]; Post-Emergence at 15.625 g/ha) | damage to plant (100=total damage; 0=no damage) SETFA ([4]; Post-Emergence at 62.5 g/ha) | damage to plant (100=total damage; 0=no damage) SETFA ([4]; Post-Emergence at 250 g/ha) | damage to plant (100=total damage; 0=no damage) AMARE ([5]; Post-Emergence at 15.625 g/ha) | damage to plant (100=total damage; 0=no damage) AMARE ([5]; Post-Emergence at 62.5 g/ha) | damage to plant (100=total damage; 0=no damage) AMARE ([5]; Post-Emergence at 250 g/ha) | damage to plant (100=total damage; 0=no damage) ABUTH ([6]; Pre-Emergence at 15.625 g/ha) | damage to plant (100=total damage; 0=no damage) ABUTH ([6]; Pre-Emergence at 62.5 g/ha) | damage to plant (100=total damage; 0=no damage) ABUTH ([6]; Pre-Emergence at 250 g/ha) | damage to plant (100=total damage; 0=no damage) SETFA ([7]; Pre-Emergence at 15.625 g/ha) | damage to plant (100=total damage; 0=no damage) SETFA ([7]; Pre-Emergence at 62.5 g/ha) | also measured
CN1CC(c2cc(C(F)(F)F)n(C)n2)C(C(=O)Nc2cccc(F)c2OC(F)F)C1=O (racemic) [Compound 23] | 0 | 10 | 30 | 70 | 90 | 90 | 10 | 20 | 40 | 60 | 80 | 80 | 0 | 0 | 0 | 0 | 0 | 0 | 70 | 90 | damage to plant (100=total damage; 0=no damage) SETFA ([7]; Pre-Emergence at 250 g/ha): 90; damage to plant (100=total damage; 0=no damage) ZEAMX (corn (Zea mays, ZEAMX) [8]; Post-Emergence at 15.625 g/ha): 0; damage to plant (100=total damage; 0=no damage) ZEAMX (corn (Zea mays, ZEAMX) [8]; Post-Emergence at 62.5 g/ha): 20; damage to plant (100=total damage; 0=no damage) ZEAMX (corn (Zea mays, ZEAMX) [8]; Post-Emergence at 250 g/ha): 80; damage to plant (100=total damage; 0=no damage) IPOHE ([9]; Pre-Emergence at 15.625 g/ha): 0; damage to plant (100=total damage; 0=no damage) IPOHE ([9]; Pre-Emergence at 62.5 g/ha): 10; damage to plant (100=total damage; 0=no damage) IPOHE ([9]; Pre-Emergence at 250 g/ha): 20; damage to plant (100=total damage; 0=no damage) AMARE ([10]; Pre-Emergence at 15.625 g/ha): 0; damage to plant (100=total damage; 0=no damage) AMARE ([10]; Pre-Emergence at 62.5 g/ha): 0; damage to plant (100=total damage; 0=no damage) AMARE ([10]; Pre-Emergence at 250 g/ha): 0; damage to plant (100=total damage; 0=no damage) ECHCG ([11]; Post-Emergence at 15.625 g/ha): 50; damage to plant (100=total damage; 0=no damage) ECHCG ([11]; Post-Emergence at 62.5 g/ha): 80; damage to plant (100=total damage; 0=no damage) ECHCG ([11]; Post-Emergence at 250 g/ha): 80; damage to plant (100=total damage; 0=no damage) ABUTH ([12]; Post-Emergence at 15.625 g/ha): 0; damage to plant (100=total damage; 0=no damage) ABUTH ([12]; Post-Emergence at 62.5 g/ha): 0; damage to plant (100=total damage; 0=no damage) ABUTH ([12]; Post-Emergence at 250 g/ha): 0
CN1CC(c2cc(Cl)n(C)n2)C(C(=O)Nc2cccc(F)c2F)C1=O (racemic) [Compound 27] | 10 | 10 | 20 | 70 | 90 | 90 | 0 | 10 | 10 | 10 | 50 | 70 | 30 | 40 | 30 | 0 | 0 | 0 | 60 | 80 | damage to plant (100=total damage; 0=no damage) SETFA ([7]; Pre-Emergence at 250 g/ha): 90; damage to plant (100=total damage; 0=no damage) ZEAMX (corn (Zea mays, ZEAMX) [8]; Post-Emergence at 15.625 g/ha): 0; damage to plant (100=total damage; 0=no damage) ZEAMX (corn (Zea mays, ZEAMX) [8]; Post-Emergence at 62.5 g/ha): 0; damage to plant (100=total damage; 0=no damage) ZEAMX (corn (Zea mays, ZEAMX) [8]; Post-Emergence at 250 g/ha): 10; damage to plant (100=total damage; 0=no damage) IPOHE ([9]; Pre-Emergence at 15.625 g/ha): 0; damage to plant (100=total damage; 0=no damage) IPOHE ([9]; Pre-Emergence at 62.5 g/ha): 0; damage to plant (100=total damage; 0=no damage) IPOHE ([9]; Pre-Emergence at 250 g/ha): 10; damage to plant (100=total damage; 0=no damage) AMARE ([10]; Pre-Emergence at 15.625 g/ha): 0; damage to plant (100=total damage; 0=no damage) AMARE ([10]; Pre-Emergence at 62.5 g/ha): 0; damage to plant (100=total damage; 0=no damage) AMARE ([10]; Pre-Emergence at 250 g/ha): 0; damage to plant (100=total damage; 0=no damage) ECHCG ([11]; Post-Emergence at 15.625 g/ha): 20; damage to plant (100=total damage; 0=no damage) ECHCG ([11]; Post-Emergence at 62.5 g/ha): 50; damage to plant (100=total damage; 0=no damage) ECHCG ([11]; Post-Emergence at 250 g/ha): 70; damage to plant (100=total damage; 0=no damage) ABUTH ([12]; Post-Emergence at 15.625 g/ha): 0; damage to plant (100=total damage; 0=no damage) ABUTH ([12]; Post-Emergence at 62.5 g/ha): 0; damage to plant (100=total damage; 0=no damage) ABUTH ([12]; Post-Emergence at 250 g/ha): 0
CN1CC(c2nn(C)c(Cl)c2Br)C(C(=O)Nc2cccc(F)c2F)C1=O (racemic) [Compound 28] | 0 | 0 | 0 | 30 | 70 | 90 | 0 | 0 | 0 | 10 | 30 | 70 | 30 | 40 | 50 | 0 | 0 | 0 | 20 | 80 | damage to plant (100=total damage; 0=no damage) SETFA ([7]; Pre-Emergence at 250 g/ha): 90; damage to plant (100=total damage; 0=no damage) ZEAMX (corn (Zea mays, ZEAMX) [8]; Post-Emergence at 15.625 g/ha): 0; damage to plant (100=total damage; 0=no damage) ZEAMX (corn (Zea mays, ZEAMX) [8]; Post-Emergence at 62.5 g/ha): 0; damage to plant (100=total damage; 0=no damage) ZEAMX (corn (Zea mays, ZEAMX) [8]; Post-Emergence at 250 g/ha): 0; damage to plant (100=total damage; 0=no damage) IPOHE ([9]; Pre-Emergence at 15.625 g/ha): 0; damage to plant (100=total damage; 0=no damage) IPOHE ([9]; Pre-Emergence at 62.5 g/ha): 0; damage to plant (100=total damage; 0=no damage) IPOHE ([9]; Pre-Emergence at 250 g/ha): 0; damage to plant (100=total damage; 0=no damage) AMARE ([10]; Pre-Emergence at 15.625 g/ha): 0; damage to plant (100=total damage; 0=no damage) AMARE ([10]; Pre-Emergence at 62.5 g/ha): 0; damage to plant (100=total damage; 0=no damage) AMARE ([10]; Pre-Emergence at 250 g/ha): 0; damage to plant (100=total damage; 0=no damage) ECHCG ([11]; Post-Emergence at 15.625 g/ha): 30; damage to plant (100=total damage; 0=no damage) ECHCG ([11]; Post-Emergence at 62.5 g/ha): 50; damage to plant (100=total damage; 0=no damage) ECHCG ([11]; Post-Emergence at 250 g/ha): 70; damage to plant (100=total damage; 0=no damage) ABUTH ([12]; Post-Emergence at 15.625 g/ha): 0; damage to plant (100=total damage; 0=no damage) ABUTH ([12]; Post-Emergence at 62.5 g/ha): 0; damage to plant (100=total damage; 0=no damage) ABUTH ([12]; Post-Emergence at 250 g/ha): 0
